The record followed here is EP0320095A2, “Bilirubin degrading enzymes” (HEALTH & RESEARCH SERVICES INC., priority 1987, dated 1989).

The test system of test [1] is lime enzyme preparation. Put plainly: Effects of common enzyme cofactors on the lime enzyme. In kind it is biochemical, Citrus aurantifolia. To be noted: 1 mM final concentration. Here is the method: (§1) For the orange enzyme preparation, however, 1mM ATP inhibited the activity by almost 50%.
The test system of test [2] is orange enzyme preparation. Put plainly: Effects of common enzyme cofactors on the orange enzyme. The test is classed as biochemical, Citrus sinensis. As to conditions: 1mM. Here is the method: as §1
The test system of test [3] is lime enzyme preparation. Put plainly: Effect of common blood components on the lime enzyme reaction. In kind it is biochemical, Citrus aurantifolia. The procedure:
The bilirubin-degrading assay as described in Example 2 was carried out using a lime enzyme preparation obtained as described in Example 1. Urate (at either 1.2 mM or 297 µM) and creatinine (88.4 and 176.8 µM) in a serum-based matrix had no effect on either the rate or extent of bilirubin degradation by the Citrus enzyme. […] Tests that are interfered severely by bilirubin include e.g. uric acid, cholesterol, glucose, triglycerides, to mention just a few (See for example, Spain and Wu, Clin. Chem. 32:518, 1986). Also, in practice, one will use much higher levels of the enzyme than those used here (5-10 µL/assay, representing about 0.1-0.2 mg protein). In such cases, the effects on initial rates will most likely be overcome or reduced to well within tolerable limits.

In test [4] the test system is orange enzyme preparation. The test is described as follows: Effect of common blood components on the orange enzyme reaction. In kind it is biochemical, Citrus sinensis. The procedure:
The bilirubin-degrading assay as described under (A) was carried out using an orange enzyme preparation obtained as described in Example 1. […] It is to be noted that the amount of enzyme used for removing interferences can be increased, if desired, to speed up the process. […]

Take `Nc1ncnc2c1ncn2[C@@H]1O[C@H](COP(=O)(O)OP(=O)(O)O)[C@@H](O)[C@H]1O` [ADP]: the “effect on the enzyme in the normal bilirubin-degrading assay” value (shortened to “effect on the enzyme”) in the test with lime enzyme preparation [1] is reported as “no demonstrable effect”.

With `Nc1ncnc2c1ncn2[C@@H]1O[C@H](COP(=O)(O)O)[C@@H](O)[C@H]1O` [AMP], in the test on lime enzyme preparation [1], the “effect on the enzyme” value was “no demonstrable effect”.

Take `Nc1ncnc2c1ncn2[C@@H]1O[C@H](COP(=O)(O)OP(=O)(O)OP(=O)(O)O)[C@@H](O)[C@H]1O` [ATP]: in the test on lime enzyme preparation [1], the “effect on the enzyme” value is on record as “no demonstrable effect”. The compound also came in with an activity inhibited in test [2] of roughly 50%.

For the compound `NC(=O)C1=CN([C@@H]2O[C@H](COP(=O)(O)OP(=O)(O)OC[C@H]3O[C@@H](n4cnc5c(N)ncnc54)[C@H](O)[C@@H]3O)[C@@H](O)[C@H]2O)C=CC1` [NADH], the “effect on the enzyme” value with lime enzyme preparation [1] is on record as “no demonstrable effect”.

Take `NC(=O)c1ccc[n+]([C@@H]2O[C@H](COP(=O)([O-])OP(=O)(O)OC[C@H]3O[C@@H](n4cnc5c(N)ncnc54)[C@H](O)[C@@H]3O)[C@@H](O)[C@H]2O)c1` [NAD]: in the test with lime enzyme preparation [1], the “effect on the enzyme” value was “no demonstrable effect”.

For the compound `Oc1nc(O)c2nc(O)[nH]c2n1` [Urate], the “effect on the rate or extent of bilirubin degradation” value with lime enzyme preparation [3] (at either 1.2 mM or 297 µM in a serum-based matrix) is recorded as “no effect”.

On to `CC(C)CCC[C@@H](C)[C@H]1CC[C@H]2[C@@H]3CC=C4C[C@@H](O)CC[C@]4(C)[C@H]3CC[C@]12C` [cholesterol], for which the “effect on reaction extent” value in the test with lime enzyme preparation [3] (30-40 min. incubation, serum-like matrix) is reported as “not significantly affected”. Besides, in the test with lime enzyme preparation [3] (elevated levels (cholesterol e.g. 11 mM or 400 mg/dL)), the “slow down of the initial rate of the enzymic reaction on unconjugated bilirubin” value is reported as 10-20%. In addition, the “overall yield of the enzymic reaction, of the control value” in test [4] (elevated cholesterol) is 90-95%. Further, in test [4] (elevated levels, for example at 10mM), the initial rate retarded is on record as 10-20%.

With `NC(N)=O` [urea], the “effect on the reaction of the orange enzyme” value in test [4] (water-soluble serum analytes) is given as “largely unaffected”.
